Patent publication US20250290915A1, “METHOD FOR PREDICTING RESPONSIVENESS TO THERAPY” (CANCERTAIN LIMITED, priority 2022, published 2025)

Tests used:
[1] = system: cancer cells derived from the tissue sample of a patient with osteosarcoma; assay: Drug response score assay on tissue sample, Example 10; type: cell-based, human; design: key to Drug response score, conc. 1 / Drug response score, conc. 2 / Drug response score, conc. 3 / Drug response score, conc. 4: normalized drug response metric per Gupta et al. 2020; details: for effectiveness on the cancer cells derived from the tissue sample under laboratory conditions / Drug sensitivity as calculated by the assay (interpretation of Drug Response Scores): osteosarcoma tissue sample; for Drug sensitivity as calculated by the assay (interpretation of Drug Response Scores): Table 33; for Drug response score, conc. 1 / Drug response score, conc. 2 / Drug response score, conc. 3 / Drug response score, conc. 4: tissue sample; for Drug response score, conc. 1: conc. 1 per Table 31: Etop 1, DTIC 1.5, Ifos 0.125, Doce 0.02, Irinotecan 5 μg/ml; for Drug response score, conc. 2: conc. 2 per Table 31: Etop 4, DTIC 3, Ifos 0.25, Doce 0.2, Irinotecan 10 μg/ml; for Drug response score, conc. 3: conc. 3 per Table 31: Etop 20, DTIC 6, Ifos 5, Doce 2, Irinotecan 25 μg/ml; for Drug response score, conc. 4: conc. 4 per Table 31: Etop 100, DTIC 12, Ifos 10, Doce 10, Irinotecan 50 μg/ml
Protocol: Where a tissue sample was provided by each subject, cancer stem cells (CSCs, CD133^+), were isolated from said sample. Tumour marker cells were further isolated from each tissue sample. The remaining cells were designated tumour marker^+ cells.
First, disaggregation of the tissue samples was carried out. Disaggregation was dependent on the size of the tissue sample and the method of retrieval: • EBUS (Endobronchial Ultrasound Scan and Biopsy)—very small fragments of tissue in solution-spun at 1200 rpm for 5 minutes to collect tissue pellet • Bronchoscopy-larger fragments with larger amount of blood vessels • Broncho-lavage-similar to EBUS, spun at 1200 rpm for 5 minutes to collet tissue pellet
Once a pellet of tissue obtained, DMEM added to the tissue pellet and the material forced through a […] Smart strainer. Once a cell suspension was achieved, this was spun at 1200 rpm for 5 minutes and the supernatant removed. The cells were then resuspended to a volume of 60 μl.
20 μl of FcR block and 20 μl of CD133 microbeads were added to the resuspended cells, followed by incubation for 15 minutes at 4° C. The cells were then processed using an AutoMACS machine. This separates the […] into CD133^+ and CD133^− cells in 2 separate falcons. The falcon tubes are then centrifuged at 1200 rpm for 5 minutes.
The supernatant was removed from the CD133+falcon tube, and the cells resuspended in DMEM with 2 μl Cell Tox, 2 μl MT and 2 μl MT. 20 μl of the resuspended […] was then plated in each well which will contain an immunotherapy treatment.
The supernatant was removed from the CD133^− falcon tube, and the CD133^− cells contacted with 40 μl of a tumour separation microbeads cocktail containing microbeads bound to anti-CD31, anti-CD45, anti-Glycophorin-A (Gly-A) and an anti-fibroblast antibody.
This cocktail is used to separate out tumour marker cells using MACS, by separating out CD31^+, CD45^+ and Gly-A^+ cells. In addition, anti-fibroblast antibody-labelled beads are also used. The cocktail is added to the CD133^− falcon tube, followed by incubation for 15 minutes at 4° C. MACS is carried out using an AutoMACS machine. This cells which are not bound by the CD31, CD45, Gly-A and anti-fibroblast antibody beads are the tumour marker^+ cells.
(§1) The different cell types were each divided equally into populations, depending on the number of drugs/concentrations to be tested and plated on a cell-culture plate pre-coated with a scaffold of polycaprolactone (PCL) electrospun fibres and incubated at 37° C., 5% CO2, for 5 to (typically 10) minutes to facilitate cell attachment. After attachment, an initial imaging step was carried out using the RealTime-Glo™ MT assay from Promega (Catalogue No. G9711)) and the CellTox™ Green Cytotoxicity Assay (Promega, Catalogue No. G8741), carried out according to manufacturer's instructions. Following this initial imagining, the immunotherapeutic and/or chemotherapeutic agents were added to the cell populations as indicated below. After 10 minutes, the imagining step was repeated. The cell populations were then incubated at 37° C., 5% CO2 for 48 hours. The imaging step was then repeated. The cell populations were then re-dosed with the same immunotherapeutic and/or chemotherapeutic agents as indicated below, and incubated at 37° C., 5% CO2 for a further 48 hours. After this second 48 hour incubation, the imagining step was repeated for a final time.
At the end of this culture period, dose response scores were calculated using a normalized drug response metric as described in Gupta et al. (Communications Biology volume 3, Article number: 42 (2020), https://doi.org/10.1038/s42003-020-0765-z). The start readout for a given immunotherapeutic or chemotherapeutic agent at a given concentration was the to readout for said immunotherapeutic or chemotherapeutic agent at a specified concentration. […]

[2] = system: Circulating Tumour Cells (CTCs) from a patient with rectal cancer (anorectal carcinoma with secondary lung cancer); assay: Drug response score assay on CTCs (with CD45+ cells for immunotherapy) from blood, Example 3; type: cell-based, human; details: for Drug response score, conc. 1: conc. 1: Pembro 20 μg/ml, Nivo 20 μg/ml (CTCs + CD45+ cells), Lenva 50 ng/ml, Regor 60 μg/ml (CTCs); for Drug response score, conc. 1 / Drug response score, conc. 2 / Drug response score, conc. 3 / Drug response score, conc. 4: t96h; for Drug response score, conc. 2: conc. 2: Pembro 40 μg/ml, Nivo 40 μg/ml (CTCs + CD45+ cells), Lenva 100 ng/ml, Regor 80 μg/ml (CTCs); for Drug response score, conc. 3: conc. 3: Pembro 100 μg/ml, Nivo 80 μg/ml (CTCs + CD45+ cells), Lenva 200 ng/ml, Regor 120 μg/ml (CTCs); for Drug response score, conc. 4: conc. 4: Pembro 160 μg/ml, Nivo 160 μg/ml (CTCs + CD45+ cells), Lenva 400 ng/ml, Regor 160 μg/ml (CTCs); for effectiveness on Circulating Tumour Cells under laboratory conditions / Drug sensitivity as calculated by the assay (interpretation of Drug Response Scores): rectal cancer CTCs; for Drug sensitivity as calculated by the assay (interpretation of Drug Response Scores): Table 11
Protocol: CD45^+ cells and circulating tumour cells (CTCs) were isolated from a blood sample provided by each subject.
CD45 separation was performed by adding human CD45 microbeads (50 μl/ml blood), incubating for 15 minutes at 4° C. and then processing using an AutoMACS machine. This separates the blood sample into CD45^+ and CD45^−cells in 2 separate falcons. The falcon tubes are then centrifuged at 1200 rpm for 5 minutes.
The supernatant was removed from the CD45^+falcon tube, and the cells resuspended in DMEM with 2 μl Cell Tox, 2 μl MT and 2 μl MT. 20 μl of the resuspended CD45^+ cells was then plated in each well which will contain an immunotherapy treatment.
The supernatant was removed from the CD45^−falcon tube, and the CD45^−cells contacted with 100 μl of FcR block and 100 μl of CD326 (EpCAM) MicroBeads, followed by incubation at […] 4° C. for 30 minutes. The CD45^−cells were then processed using an AutoMACS machine to separate the EpCAM positive and negative cells into 2 separate falcon tubes. The EpCAM-cells were discarded. The supernatant was removed from the EpCAM^+ cells, and the cells resuspended in DMEM with 2 μl Cell Tox, 2 μl MT and 2 μl MT. 20 μl of the resuspended pellet was then added to all sample wells excluding a blank. After all wells are added to, a cell count was conducted on the […] to determine the number of circulating tumour cells (CTCs).
as §1
At the end of this culture period, dose response scores were calculated using a normalized drug response metric as described in Gupta et al. (Communications Biology volume 3, Article number: 42 (2020), https://doi.org/10.1038/s42003-020-0765-z). The start readout for a given immunotherapeutic or chemotherapeutic agent at a given concentration was the to readout for said immunotherapeutic or chemotherapeutic agent at a specified concentration. The end readout for a given immunotherapeutic or chemotherapeutic agent at a given concentration was the final timepoint reading (t96h) for said immunotherapeutic or chemotherapeutic agent at a specified concentration.
The positive control start readout for a given drug/concentration was the to readout for the corresponding drug at a specified concentration. The positive control end readout for the corresponding drug at a specified concentration was the final timepoint reading (t96h) for the corresponding blank well.
The negative control start and end readouts for a given immunotherapeutic or chemotherapeutic agent at a given concentration were the to and final timepoint reading (t96h) respectively for blank cell or blank immuno cell well respectively.
The sensitivity or resistance of a subject's cancer to a given immunotherapeutic or chemotherapeutic agent was determined based on the calculated drug response score as shown in Table 2. […]

| Compound | effectiveness on the cancer cells derived from the tissue sample under laboratory conditions [1] | Drug sensitivity as calculated by the assay (interpretation of Drug Response Scores) [1] | Drug response score, conc. 1 [1] | Drug response score, conc. 2 [1] | Drug response score, conc. 3 [1] | Drug response score, conc. 4 [1] | Drug response score, conc. 1 [2] | Drug response score, conc. 2 [2] | Drug response score, conc. 3 [2] | Drug response score, conc. 4 [2] | effectiveness on Circulating Tumour Cells under laboratory conditions [2] | Drug sensitivity as calculated by the assay (interpretation of Drug Response Scores) [2] |
| --- | --- | --- | --- | --- | --- | --- | --- | --- | --- | --- | --- | --- |
| CC(=O)O[C@@]12CO[C@@H]1C[C@H](O)[C@@]1(C)C(=O)[C@H](O)C3=C(C)[C@@H](OC(=O)[C@H](O)[C@@H](NC(=O)OC(C)(C)C)c4ccccc4)C[C@@](O)([C@@H](OC(=O)c4ccccc4)[C@H]21)C3(C)C [Docetaxel] | resistant | Resistant | −0.5113 | 1.0268 | 0.6693 | −0.6056 |  |  |  |  |  |  |
| COc1cc([C@@H]2c3cc4c(cc3[C@@H](O[C@@H]3O[C@@H]5CO[C@@H](C)O[C@H]5[C@H](O)[C@H]3O)[C@H]3COC(=O)[C@H]23)OCO4)cc(OC)c1O [Etoposide] | show effectiveness | Sensitive (S+) | 0.4829 | 0.0653 | −0.4472 | 0.0955 |  |  |  |  |  |  |
| Pembrolizumab |  |  |  |  |  |  | 0.6167 | 0.4053 | 0.9748 | 0.7712 | Sensitive S+ | Sensitive (S+) |
| O=P1(NCCCl)OCCCN1CCCl (stereo not drawn) [Ifosfamide] | show effectiveness | Sensitive (S+) | 0.3183 | 0.8776 | 0.1237 | −0.8671 |  |  |  |  |  |  |
| Nivolumab |  |  |  |  |  |  | 0.4990 | 0.6429 | 0.6261 | 1.0807 | Sensitive S+ | Sensitive (S+) |
| COc1cc2nccc(Oc3ccc(NC(=O)NC4CC4)c(Cl)c3)c2cc1C(N)=O [Lenvatinib] |  |  |  |  |  |  | 2.0109 | 1.6409 | 0.8991 | 2.0235 | not effective | Resistant |
